# Data taken from paper PMC6155837, “Design, Synthesis, and Biological Evaluation of a New Series of Biphenyl/Bibenzyl Derivatives Functioning as Dual Inhibitors of Acetylcholinesterase and Butyrylcholinesterase” (Molecules : A Journal of Synthetic Chemistry and Natural …, 2017).
# Read-outs that look alike come from different tables or passages of the source.
# Key:
# BuChE (from human serum) = target: T1, BuChE (from human serum) (Homo sapiens, UniProt P06276); test: biochemical
# T1 construct: human BuChE purified by human serum; from tissue; host or cells: human serum
# T1 sequence (P06276 29-602): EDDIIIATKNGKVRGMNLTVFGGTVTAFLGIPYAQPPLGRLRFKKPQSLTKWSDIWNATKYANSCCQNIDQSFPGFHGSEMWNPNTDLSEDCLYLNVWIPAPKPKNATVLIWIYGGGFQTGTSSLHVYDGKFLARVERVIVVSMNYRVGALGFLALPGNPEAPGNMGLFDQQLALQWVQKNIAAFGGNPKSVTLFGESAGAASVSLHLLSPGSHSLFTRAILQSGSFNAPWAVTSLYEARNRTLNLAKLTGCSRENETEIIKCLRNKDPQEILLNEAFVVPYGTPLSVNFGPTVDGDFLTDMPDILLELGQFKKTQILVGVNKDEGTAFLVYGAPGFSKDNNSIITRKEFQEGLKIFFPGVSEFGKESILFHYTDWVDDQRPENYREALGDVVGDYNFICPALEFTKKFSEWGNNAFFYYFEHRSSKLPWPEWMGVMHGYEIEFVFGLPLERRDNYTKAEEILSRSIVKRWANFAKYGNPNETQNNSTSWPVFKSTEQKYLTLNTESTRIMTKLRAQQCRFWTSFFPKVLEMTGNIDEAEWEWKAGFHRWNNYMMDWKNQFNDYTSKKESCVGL
# Experimental: (§1) All of the assay of acetylcholinesterase (AChE) and butyrylcholinesterase (BuChE) were performed according to the method described by Ellman et al. using the rat AChE purified from the rat brain and human BuChE purified by human serum. In an enzymatic reaction medium contained different concentration of tested compounds and AChE suspended in the phosphate buffer solution at pH 7.2. After 30 min at room temperature, acetylthiocholine iodide and 5.5′-dithiobis-2-nitrobenzoic acid (DNTB) were added and the reaction mixture incubated at 37 °C for 60 min. […] The parallel control experiment was carried without tested compounds in the reaction mixture. For BuChE inhibitory assay, the procedure described above was followed except for the use of enzyme and substrate, instead of which butyrylcholinesterase and butyrylthiocholine chloride were used, respectively. Assays were done with a blank containing all compounds except AChE or BuChE in order to account for nonenzymatic reactions. Each inhibitory test was conducted in triplicate. […] Each concentration was assayed in triplicate and data were expressed as the mean ± SEM.
# AChE (from rat brain) = target: T2, AChE (from rat brain) (Rattus norvegicus, UniProt P37136); test: biochemical; format: biochemical
# T2 construct: rat AChE purified from the rat brain; from tissue; host or cells: rat brain
# T2 sequence (P37136 32-614): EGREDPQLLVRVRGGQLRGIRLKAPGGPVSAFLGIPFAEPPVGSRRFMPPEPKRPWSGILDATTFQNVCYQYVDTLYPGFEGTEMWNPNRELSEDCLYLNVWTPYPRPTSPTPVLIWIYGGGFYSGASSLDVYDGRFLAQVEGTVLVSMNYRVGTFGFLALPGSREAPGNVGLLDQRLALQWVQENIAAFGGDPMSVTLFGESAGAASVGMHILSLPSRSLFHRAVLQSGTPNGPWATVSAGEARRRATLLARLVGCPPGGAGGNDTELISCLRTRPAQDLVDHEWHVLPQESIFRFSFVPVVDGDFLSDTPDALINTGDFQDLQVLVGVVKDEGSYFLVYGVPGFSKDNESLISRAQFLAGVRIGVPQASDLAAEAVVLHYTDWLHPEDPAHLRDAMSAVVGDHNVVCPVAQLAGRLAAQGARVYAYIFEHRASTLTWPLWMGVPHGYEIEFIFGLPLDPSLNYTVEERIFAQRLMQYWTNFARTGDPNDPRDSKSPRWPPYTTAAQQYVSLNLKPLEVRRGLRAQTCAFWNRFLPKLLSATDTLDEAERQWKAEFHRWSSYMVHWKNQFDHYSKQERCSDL
# Experimental: as §1
# [1] = AChE from rat brain, footnote d: inactive up to 100 µM/L, read-out: IC50 µM ± SEM AChE
# [2] = BuChE from human serum, means ± SEM of three experiments, read-out: IC50 µM ± SEM BuChE
# [3] = AChE from rat brain, means ± SEM of three experiments, read-out: IC50 µM ± SEM AChE
SMILES,IC50 (BuChE (from human serum)) [µM],IC50 (AChE (from rat brain)) [µM],also measured
"O=C(CCN1CCCC1)c1ccc(-c2ccc(C(=O)CCN3CCCC3)cc2)cc1 [Compound 18, 4,4′-Bis(β-pyrrolidin-propinoyl)-biphenyl]",1.16 ± 0.09,0.33 ± 0.06,–
"O=C(CN1CCCCC1)c1ccc(-c2ccc(C(=O)CN3CCCCC3)cc2)cc1 [Compound 13, 1,1′-([1,1′-Biphenyl]-4,4′-diyl)bis(2-(piperidin-1-yl)ethanone)]",71.7 ± 3.01,–,IC50 (AChE (from rat brain); [1]): > 100 µM
"CN(C)CCC(=O)c1ccc(CCc2ccc(C(=O)CCN(C)C)cc2)cc1 [Compound 29, 1,1′-(Ethane-1,2-diylbis(4,1-phenylene))bis(3-(dimethylamino)propan-1-one)]",1.21 ± 0.22,2.62 ± 0.63,–
"O=C(CCN1CCOCC1)c1ccc(CCc2ccc(C(=O)CCN3CCOCC3)cc2)cc1 [Compound 31, 1,1′-(Ethane-1,2-diylbis(4,1-phenylene))bis(3-morpholinopropan-1-one)]",6.38 ± 1.26,3.53 ± 0.79,–
"CCN(CC)CCC(=O)c1ccc(-c2ccc(C(=O)CCN(CC)CC)cc2)cc1 [Compound 15, 4,4′-Bis(β-diethylamino-propinoyl)-biphenyl]",0.74 ± 0.09,1.18 ± 0.29,–
O=C(CCN1CCCCC1)c1ccc(-c2ccc(C(=O)CCN3CCCCC3)cc2)cc1 [Compound 19],1.25 ± 0.15,0.096 ± 0.006,fold more potent than the lead compound (1) for inhibiting AChE (AChE (from rat brain); relative to compound 1): eight
O=C(CCN1CCOCC1)c1ccc(-c2ccc(C(=O)CCN3CCOCC3)cc2)cc1 [Compound 20],0.72 ± 0.1,0.97 ± 0.08,–
"OC(CCN1CCOCC1)c1ccc(-c2ccc(C(O)CCN3CCOCC3)cc2)cc1 (centres unmarked) [Compound 35, 1,1′-([1,1′-Biphenyl]-4,4′-diyl)bis(3-morpholinopropan-1-ol)]",–,–,"IC50 (BuChE (from human serum); BuChE from human serum, footnote d: inactive up to 100 µM/L, read-out: IC50 µM ± SEM BuChE): > 100 µM; IC50 (AChE (from rat brain); [1]): > 100 µM"
"O=C(CCCCN1CCCCC1)c1ccc(CCc2ccc(C(=O)CCCCN3CCCCC3)cc2)cc1 [Compound 33, 1,1′-(Ethane-1,2-diylbis(4,1-phenylene))bis(5-(piperidin-1-yl)pentan-1-one)]",1.64 ± 0.27,0.19 ± 0.08,–
"O=C(CCN1CCC1)c1ccc(-c2ccc(C(=O)CCN3CCC3)cc2)cc1 [Compound 17, 4,4′-Bis(β-azetidin-propinoyl)-biphenyl]",2.39 ± 0.75,0.71 ± 0.06,–
"O=C(CN1CCOCC1)c1ccc(-c2ccc(C(=O)CN3CCOCC3)cc2)cc1 [Compound 14, 1,1′-([1,1′-Biphenyl]-4,4′-diyl)bis(2-morpholinoethanone)]",–,> 100,IC50 (BuChE (from human serum); [2]): 1.44 ± 0.23 µM
"O=C(CCCN1CCCCC1)c1ccc(CCc2ccc(C(=O)CCCN3CCCCC3)cc2)cc1 [Compound 32, 1,1′-(Ethane-1,2-diylbis(4,1-phenylene))bis(4-(piperidin-1-yl)butan-1-one)]",19.2 ± 4.78,3.67 ± 0.92,–
"CN1CCN(CCC(=O)c2ccc(-c3ccc(C(=O)CCN4CCN(C)CC4)cc3)cc2)CC1 [Compound 22, 4,4′-Bis(β-4-methylpiperazin-propinoyl)-biphenyl]",13.8 ± 0.81,1.61 ± 0.38,–
"O=C(CCN1CCCCCC1)c1ccc(-c2ccc(C(=O)CCN3CCCCCC3)cc2)cc1 [Compound 21, 4,4′-Bis(β-azepan-propinoyl)-biphenyl]",1.94 ± 0.07,1.43 ± 0.33,–
"CN(C)CC(=O)c1ccc(CCc2ccc(C(=O)CN(C)C)cc2)cc1 [Compound 25, 1,1′-(Ethane-1,2-diylbis(4,1-phenylene))bis(2-(dimethylamino)ethanone)]",9.11 ± 2.55,62.3 ± 14.5,–
"CCCN(CCC)CCC(=O)c1ccc(-c2ccc(C(=O)CCN(CCC)CCC)cc2)cc1 [Compound 16, 4,4′-Bis(β-dipropylamino-propinoyl)-biphenyl]",2.83 ± 0.5,0.88 ± 0.17,–
"CN(C)CC(=O)c1ccc(-c2ccc(C(=O)CN(C)C)cc2)cc1 [Compound 12, 1,1′-([1,1′-Biphenyl]-4,4′-diyl)bis(2-(dimethylamino)ethanone)]",–,–,IC50 (BuChE (from human serum); [2]): 91.7 ± 15.7 µM; IC50 (AChE (from rat brain); [1]): > 100 µM
"CN1CCN(CC(=O)c2ccc(CCc3ccc(C(=O)CN4CCN(C)CC4)cc3)cc2)CC1 [Compound 27, 1,1′-(Ethane-1,2-diylbis(4,1-phenylene))bis(2-(4-methylpiperazin-1-yl)ethanone)]",66.5 ± 17,74.1 ± 11.5,–
"O=C(CN1CCCCC1)c1ccc(CCc2ccc(C(=O)CN3CCCCC3)cc2)cc1 [Compound 26, 1,1′-(Ethane-1,2-diylbis(4,1-phenylene))bis(2-(piperidin-1-yl)ethanone)]",20.7 ± 5.44,–,IC50 (AChE (from rat brain); [3]): 74.5 ± 8.5 µM
"O=C(CCCCN1CCCCC1)c1ccc(-c2ccc(C(=O)CCCCN3CCCCC3)cc2)cc1 [Compound 24, 1,1′-([1,1′-Biphenyl]-4,4′-diyl)bis(5-(piperidin-1-yl)pentan-1-one)]",2.65 ± 0.11,0.82 ± 0.16,–
"O=C(CCCN1CCCCC1)c1ccc(-c2ccc(C(=O)CCCN3CCCCC3)cc2)cc1 [Compound 23, 1,1′-([1,1′-Biphenyl]-4,4′-diyl)bis(4-(piperidin-1-yl)butan-1-one)]",5.9 ± 0.4,1.32 ± 0.43,–
"O=C(CCN1CCCCC1)c1ccc(CCc2ccc(C(=O)CCN3CCCCC3)cc2)cc1 [Compound 30, 1,1′-(Ethane-1,2-diylbis(4,1-phenylene))bis(3-(piperidin-1-yl)propan-1-one)]",–,0.5 ± 0.06,IC50 (BuChE (from human serum); [2]): 3.14 ± 0.24 µM
"OC(CCN1CCCCC1)c1ccc(-c2ccc(C(O)CCN3CCCCC3)cc2)cc1 (centres unmarked) [Compound 34, 1,1′-([1,1′-Biphenyl]-4,4′-diyl)bis(3-(piperidin-1-yl)propan-1-ol)]",13.8 ± 1.59,31.7 ± 10.2,–
"CN(C)CCC(=O)c1ccc(-c2ccc(C(=O)CCN(C)C)cc2)cc1 [Compound 1, 4,4′-bi-(β-dimethylamino-propinoyl)-biphenyl]",0.19,0.75,–
O=C(CN1CCOCC1)c1ccc(CCc2ccc(C(=O)CN3CCOCC3)cc2)cc1 [Compound 28],–,–,IC50 (BuChE (from human serum); [2]): 6.3 ± 1.6 µM; IC50 (AChE (from rat brain); [1]): > 100 µM
"OC(CCN1CCCCC1)c1ccc(CCc2ccc(C(O)CCN3CCCCC3)cc2)cc1 (centres unmarked) [Compound 36, 1,1′-(Ethane-1,2-diylbis(4,1-phenylene))bis(3-(piperidin-1-yl)propan-1-ol)]",–,–,IC50 (BuChE (from human serum); [2]): 25.9 ± 6.81 µM; IC50 (AChE (from rat brain); [3]): 74.9 ± 35.6 µM
